Laboratory results reported in patent US8530235B2, “Medium that supports culture of an oocyte and modulation of granulosa cell apoptosis” (Adelaide Research & Innovation Pty Ltd., priority 2005, dated 2013).

Tests used:
Smad2/3 = experiment: CAGA-luciferase activity, activation of Smad2/3 (Example 21); type: cell-based
Text: FIGS. 15A and 15B show the effect of various concentrations of the AlK4/5/7 inhibitor on TGF-β1 stimulated CAGA luciferase activity.

granulosa cell = experiment: GDF-9 and oocyte-induced granulosa cell DNA synthesis (Example 21); type: cell-based
Text: FIGS. 14A and 14B show the effect of an AlK4/5/7 inhibitor on either GDF-9, TGF-β1, or oocyte induced DNA synthesis (Panel A), and the effect of various concentrations of the inhibitor on GDF-9 and oocyte induced DNA synthesis (Panel B).

[1] = test system: cumulus expansion of oocytectomised (OOX) complexes; experiment: FSH-induced cumulus expansion score of OOX complexes; type: cell-based, mice
Experimental: Members of the TGF-β superfamily are prime candidates for the mouse cumulus expansion-enabling factor (CEEF). This study was conducted to examine TGF-β superfamily processes regulating cumulus expansion. COCs were collected from eGG-primed mice and the oocyte microsurgically removed to generate oocytectomised (OOX) complexes. […] The type-I receptors for GDF9 and […] are ALK5 and ALK4, respectively. We tested the ability of an ALK4/5/7 kinase inhibitor to neutralize cumulus expansion.

[2] = test system: Smad 1-responsive BRE-luciferase reporter; experiment: Smad 1-responsive BRE-luciferase reporter in mural granulosa cells from large antral follicles; type: cell-based, marmoset monkey, Callithrix jacchus; settings: 48 h; 0.5 ng/ml TGFβ1, 88-265 ng/ml GDF9, 50 ng/ml BMP7 or 60 mouse oocytes
Experimental: (§1) FIGS. 18A and 18B show the activation of the TGF-β signalling pathway by GDF9 and oocytes. MGC from large follicles were transiently transfected with either a Smad 3-responsive CAGA-luciferase reporter construct (A) or a Smad 1-responsive BRE-luciferase reporter construct (B). Cells were subsequently left untreated, treated with 0.5 ng/ml TGFβ1, 88-265 ng/ml GDF9, 50 ng/ml BMP7 or co-cultured with 60 mouse oocytes. Cells were cultured for 48 h after which time luciferase activity was measured from cell extracts. Bars represent means+/− SEM from 3 replicate experiments expressed as a fold change relative to control.
(§2) Luciferase reporter constructs responsive to specific phosphorylated Smads were used to detect the activation of mural GC Smad proteins by recombinant GDF9 Mural GCs were collected and processed as described above, except cells were given a final wash in DMEM(MP Biomedicals, Seven Hills, Australia)+2% FCS (Trace Biosciences, Castle Hill, Australia). Following the final wash, cells were transferred to individual wells of a 96-well plate (Falcon) and cultured at 1.6×10^5 cells/ml. After 4 hours of culture, cells were transiently transfected with 50 ng of luciferase reporter construct DNA using Fugene 6 (Roche Diagnostics, Castle Hill, Australia). 18 hours after transfection, medium was aspirated from cells and replaced with DMEM supplemented with 0.1% FCS. Various ligands were added to cells at this point (see below) and the culture period extended for a further 48 hours. Experiments were terminated by removing media from wells and freezing plates at −20° C. […]
(§3) Seven adult female marmosets were primed with […] for 6 days, whole ovaries were removed on day 7, follicles manually excised, and GC were then collected from 3 size classes: periantral (PA; 0.42-0.66 mm), small antral (SA; 0.66-1.5 mm) and large antral (LA; >1.5 mm). […] In order to determine the effects of GDF9 on marmoset GC proliferation, we employed a GC bioassay whereby after 24 h ^3H-thymidine incorporation is assessed as an indicator of DNA synthesis and cellular proliferation. […]

[3] = test system: Smad 3-responsive CAGA-luciferase reporter; experiment: Smad 3-responsive CAGA-luciferase reporter in mural granulosa cells from large antral follicles; type: cell-based, marmoset monkey, Callithrix jacchus; settings: 48 h; 0.5 ng/ml TGFβ1, 88-265 ng/ml GDF9, 50 ng/ml BMP7 or 60 mouse oocytes
Experimental: as §1, §2, §3

cumulus cells = experiment: Cumulus cell apoptosis in oocytectomized complexes (OOX) and COC, TUNEL with confocal microscopy; type: cell-based, Bovine
Experimental: Bovine ovaries were collected from local abattoir and transported to the laboratory in warm saline (30-35° C.). Cumulus-oocyte complexes (COC) were aspirated from antral follicles (2- to 8-mm diameter) using an 18-gauge needle and a 10-ml syringe containing ˜2 ml aspiration media (Hepes-buffered Tissue Cultured Medium-199: TCM-199, ICN Biochemicals, Irvine, Calif., USA) supplemented with 50 μg/ml kanamycin (Sigma-Aldrish, St. louis, Mo.), 4 mg/ml fatty acid-free bovine serum albumin (FAF-BSA) (ICPbio ltd, Auckland, NZ). Intact COC with compact cumulus vestment greater than five cell layers and evenly pigmented cytoplasm were selected under a dissecting microscope and washed twice in Hepes-buffered TCM-199 and once in corresponding culturing media.
The cytoplasm of each oocyte was microsurgically removed from the COC (oocytectomy) using a micromanipulator as described in Buccione et al (Buccione et al. (1990) Dev Biol 138, 16-25.). The resulting oocytectomized complex (OOX) consists of a hollow zona pellucida surrounded by several layers of intact CC.
Denuded oocytes (DO) were generated by removing CC from COC by vortexing for approximately 4 minutes in 2 ml H-TCM-199/BSA. Any remaining CC were removed by repeated passage of the oocytes through a fine-bore fire-polished glass pipette in H-TCM-199/BSA.
CC apoptoic DNA was detected using TUNEl (Roche Diagnostic, Penzberg, Germany) according to the manufacturer's instructions. Briefly, following culture COC and OOX complexes were washed twice in PBS (pH 7.4) containing 1% BSA, fixed in 4% paraformaldehyde in PBS (pH 7.4) overnight at 4° C. and washed twice with PBS/BSA before placing on Cell-Tak-coated coverslips (Beckton Dickinson Biosciences, Franklin lakes, N.J.). Complexes were then permeabilized in 0.11/u Triton X-100 in 0.1% sodium citrate for 1 hour at room temperature and washed 3 times in PBS/BSA. The complexes were then incubated in fluorescein-conjugated dUTP and terminal deoxynucleotide transferase (TUNEl reagents, Roche) for 1 hour at 37° C. in the dark. Positive controls were incubated in DNAse 1 (0.005 U/µl), which cleaves all DNA, for 20 minutes at room temperature and washed twice in PBS/BSA before TUNEl. Negative controls were incubated in fluorescein-dUTP in the absence of TdT. After TUNEl, complexes were washed twice in PBS/BSA and counterstained with propidium iodide 0.5 μg/ml (PI) plus RNase A (0.1 mg/ml) for 1 hour at room temperature in the dark to label all nuclei. Complexes were then washed twice in PBS/BSA and mounted with slight coverslip compression in VectaShield anti-bleaching solution (Vector labs, Burlingame, Calif.), and stored in the dark at 4° C. for confocal analysis.
Apoptosis in COC and OOX was visualised and quantified using confocal microscopy. Dual fluorescence emission from CC was detected using a Nikon C1 Confocal Scanning Head and a Nikon TE2000E microscope (Nikon, Tokyo, Japan). Simultaneous emission capture of the apoptotic signal (fluorescein, lacer excitation 488 nm, emission 510-530 nm) and the nuclear signal (propidium iodide, excitation lacer 532, emission 590-640 nm) was performed.
In order to generate an accurate representation of the overall apoptotic incidence for all complexes, the depth of each complex was measured through a Z series to divide the construct into three percentiles (optical Z plane sections) at 25%, 50% and 75%. These optical section images were acquired and saved as independent colour channels (green, apoptotic cumulus fluorescence and red, nuclear cumulus fluorescence). The captured images were then processed in Scanalytics IPlab software Version 3.6. (Scanalytics, Fairfax, Va.). Quantification of CC number (for each colour channel) was independently measured using a macro script utilizing an auto segmentation filter for each optical section percentile (3 optical “z”-plane sections for each complex).

cumulus-oocyte complexes = experiment: Study IV: oocyte developmental competence after IVM, IVF and embryo culture; type: cell-based, Bovine
Experimental: Unless otherwise specified, all chemicals and reagents were purchased from Sigma (St Louis, Mo.). Bovine ovaries were collected from local abattoirs and transported to the laboratory in warm saline (30-35° C.). COCs were aspirated from antral follicles (3 to 5 mm diameter) using an 18-gauge needle and a 10-ml syringe containing ˜2 ml aspiration medium (Hepes-buffered. Tissue Cultured Medium-199; TCM-199. ICN Biochemicals, Irvine, Calif., USA) supplemented with 50 μg/ml kanamycin, 0.5 mM sodium pyruvate, 50 μg/ml heparin and 4 mg/ml fatty acid-free bovine serum albumin (FAF-BSA; ICPbio Ltd, Aukland, NZ). Intact COCs with compact cumulus vestments>˜5 cell layers and evenly pigmented cytoplasm were selected under a dissecting microscope and washed twice in Hepes-buffered TCM-199 and once in Hepes-buffered TCM-199 supplemented with 10% fetal calf serim (FCS) (Invitrogen, Carlsbad, Calif.). The basic medium for oocyte maturation was Bovine VitroMat (Cook Australia, Eight Mile Plains, Qld, Australia), a medium based on the ionic composition of bovine follicular fluid. […] Complexes were cultured in pre-equilibrated 300 ? l drops overlaid with mineral oil and incubated at 39° C. with 5% CO2 in humidified air for 24 hour. […]
Recombinant mouse GDF9 and recombinant ovine BMP15 were produced and partially purified in-house as previously described using transfected 293 human embryonic kidney cell lines (293H) originally donated by O. Ritvos (University of Helsinki). Control conditioned medium (hereafter designated ‘293H’) was produced from untransfected 293H cells and subjected to the same chromatography procedures as GDF9 and BMP15 conditioned media.
Consequently, SB-431542 potently antagonizes the ALK 4/5 ligands; TGF-β1, the activins and GDF9, without affecting BMP signalling (Inman et al., 2002; Gilchrist et al., 2006). […] Follistatin-288 was generously donated by S. Shimasaki (University of California San Diego, USA) and we have previously shown that this binding protein antagonizes the bioactivities of native OSFs and recombinant BMP15 in CCs.
In vitro production of embryos was undertaken using defined, serum-free media (Bovine Vitro series of media, Cook Australia). Frozen semen from a single bull of proven fertility was used in all experiments. Briefly, thawed semen was layered over a discontinuous (45%: 90%) Percoll gradient (Amersham Bioscience) and centrifuged (RT) for 20-25 mins at 700 g. The supernatant was removed and the sperm pellet was washed with 500 μl Bovine VitroWash (Cook Australia) and centrifuged for a further 5 minutes at 200 g. Spermatozoa were resuspended with IVF medium (Bovine VitroFert, Cook Australia), then added to the fertilization media drops (Bovine VitroFert, supplemented with 0.01 mM heparin, 0.2 mM penicillamine and 0.1 mM hypotaurine) at a final concentration of 1×106 spermatozoa/ml. COCs were inseminated at a density of 10 μl of IVF medium per COC for 24 h, at 39° C. in 6% CO2 in humidified air.
CCs were removed by gentle pipetting 23-24 h post insemination and five presumptive zygotes were transferred into 20 μl drops of pre-equilibrated Cook Bovine VitroCleave medium (Cook Australia) and cultured under mineral oil at 38.5° C. in 7% O2, 6% CO2, balance N2, for five days (day 1 to day 5).
On Day 5, embryos were transferred in groups of 5-6 to 20 μl drops of pre-equilibrated Bovine VitroBlast (Cook Australia) at 38.5° C. overlaid with mineral oil and cultured to Day 8. Embryos were assessed for quality at Day 8 according to the definitions presented in the Manual of the International Embryo Transfer Society (Stringfellow, 1998) and were performed independently and blinded by an experienced bovine embryologist.
Cell counts were performed using a modified version of the technique described by (Fouladi-Nashta et al., 2005). […]

Molecule: NC(=O)c1ccc(-c2nc(-c3ccccn3)c(-c3ccc4c(c3)OCO4)[nH]2)cc1 [ALK4/5/7 kinase inhibitor]
- TGF-β1, GDF9 and oocyte-stimulated activation of Smad2/3 molecules (CAGA-luciferase activity) with inhibitor (Smad2/3): completely abrogated
- GDF-9 and oocyte-induced granulosa cell DNA synthesis with inhibitor (granulosa cell): completely abrogated
- GDF-9 and oocyte-induced cumulus expansion with inhibitor ([1]; OOX complexes): completely neutralised

Molecule: TGF-β1: Transforming growth factor beta 1 [reference compound]
- BRE-luciferase activity compared to control levels [2]: not activated
- CAGA-luciferase activity above control levels [3]: 19 fold

Molecule: follistatin [reference compound]
- apoptosis of BMP-15-treated OOXs with antagonist (cumulus cells; OOX + 10% v/v BMP-15, follistatin 0-100 μg/ml): dose-dependent increase in apoptosis
- antagonism of the anti-apoptotic effects of oocytes on cumulus cells (cumulus cells; OOX + 25 DO, 50 μg/ml follistatin or 20 μg/ml BMP-6 NAb alone): ~50%
- cumulus expansion score with follistatin ([1]; OOX complexes co-cultured with oocytes, no significant effect (p>0.05)): 2.7±0.2
- cumulus expansion score with follistatin ([1]; response of OOX complexes to activin): 0
- blastocyst development of control COCs treated with antagonist (cumulus-oocyte complexes; 4 μM SB-431542 or 10 μg/ml follistatin-288, compared to untreated COCs): significantly (P<0.05) decreased
- cleavage rate of oocytes (cumulus-oocyte complexes; 10 μg/ml follistatin-288 during IVM, regardless of BMP15 treatment, control 76.2±1.3, p=0.007, in %): 71.8±1.3
- increase of blastocyst yields by GDF9 or BMP15 on addition of the respective antagonist (cumulus-oocyte complexes; SB-431542 against GDF9, follistatin against BMP15): ablated

B1: BMP-7: Recombinant human BMP-7 obtained from R&D systems (protein, UniProt P18075 293-431, looked up)
Bone morphogenetic protein 7: STGSKQRSQNRSKTPKNQEALRMANVAENSSSDQRQACKKHELYVSFRDLGWQDWIIAPEGYAAYYCEGECAFPLNSYMNATNHAIVQTLVHFINPETVPKPCCAPTQLNAISVLYFDDSSNVILKKYRNMVVRACGCH
- BRE-luciferase activity compared to control levels [2]: 31 fold
- CAGA-luciferase activity above control levels [3]: not stimulated
- effect on cumulus cell apoptosis (cumulus cells; OOX treated with 100 ng/ml BMP-7 and/or 10% BMP-15): significantly reduced
